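48-hour exposure; five concentrations; linearly interpolated endpoints. Abbreviation: GI50, concentration required for 50% inhibition of growth. TGI: total growth inhibition.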
How the values were obtained:
Assay in all cases: inhibition of tumour cell growth, NCI panel, 48 h
COLO 205 colon = tested on: COLO 205 colon
HOP-62 NSCLC = tested on: HOP-62 NSCLC
NCI-H23 lung = tested on: NCI-H23 lung
SF-268 CNS = tested on: SF-268 CNS
T-47D breast = tested on: T-47D breast
UACC-62 melanoma = tested on: UACC-62 melanoma

Row | SMILES | TGI (COLO 205 colon) [µM] | TGI (HOP-62 NSCLC) [µM] | TGI (NCI-H23 lung) [µM] | TGI (SF-268 CNS) [µM] | TGI (T-47D breast) [µM] | TGI (UACC-62 melanoma) [µM] | GI50 (NCI-H23 lung) [µM] | GI50 (SF-268 CNS) [µM]
1 | Cc1ccc(C(=O)Nc2ccc(CP(=O)(O)O)cc2)cc1NC(=O)c1cccc(N)c1 | > 100 | > 100 | > 100 | > 100 | > 100 | > 100 |  | 
2 | COCCN(CCNC(=O)c1cccc2c(N)c3cccc(C)c3nc12)CCOC | 2.13 | 11.3 | 3.53 | 2.3 | 27.5 | 10.6 |  | 
3 | CC1(c2sccc2Cl)CC(c2sccc2Cl)=C(C#N)C(=C(C#N)C#N)N1 (stereo not given) | 41.8 | 37.3 | 35.9 | 38.5 | 42.1 | 32.5 |  | 
4 | CN(C)c1ccc(/C=C/c2ccc(S(N)(=O)=O)cc2)cc1 | 99.2 | 36.6 | 44 | > 100 | 80.4 |  | 14.2 | 7.16
5 | NNC(=O)CC(=O)Nc1cccc(Cl)c1 | > 100 | > 100 | > 100 | > 100 | > 100 | > 100 |  | 
6 | CCOC(=O)CC(c1ccccc1)C(C)(C(=O)OCC)C(=O)OCC (stereo not given) | > 100 | > 100 | > 100 | > 100 | > 100 | > 100 |  | 
7 | C=CC(O)(CBr)CCC(Br)C(=C)C (stereo not given) | > 10 | > 10 | > 10 | > 10 | > 10 | > 10 |  | 
8 | CCOC(=O)C(NC(=O)c1ccccc1)(Nc1ccc(S(=O)(=O)Nc2ncccn2)cc1)C(F)(F)F (stereo not given) | > 100 | > 100 | > 100 | > 100 | > 100 | > 100 |  | 
9 | CCOC(=O)c1nc2ccc(C(F)(F)F)cc2nc1Nc1cc(OC)c(OC)c(OC)c1 | > 100 | > 100 | > 100 | > 100 | > 100 | > 100 |  | 
10 | CSC1NC(c2ccccc2)=C(C#N)C(=O)N1C1OCC(OC(C)=O)C(OC(C)=O)C1OC(C)=O (stereo not given) | > 100 | > 100 | > 100 | > 100 |  | > 100 |  | 
11 | Nc1ccc2[nH]c(-c3cccc(C(F)(F)F)c3)cc(=O)c2c1 | > 100 | > 100 | > 100 |  |  | > 100 |  | 
12 | CN(CC(=O)O)c1ncc2c(n1)C=CCC2 | > 100 | > 100 | > 100 | > 100 |  | > 100 |  | 
13 | COC(=O)C1Cc2ccc(O)c(O)c2CN1 (stereo not given) | > 100 | > 100 | 31.8 |  | > 100 | 39 |  | 
14 | COC(=O)C1CCC(=O)N1C(c1cc(OC)c(OC)c(OC)c1)c1cc(OC)c(OC)c(OC)c1 (stereo not given) |  | > 100 |  | > 100 | > 100 | > 100 |  | 
15 | CC(=O)Oc1cc(S(=O)(=O)Nc2n[nH]c(Nc3ccc(C)cc3)n2)c(S)cc1Cl | > 100 |  | > 100 |  | > 100 | > 100 |  | 
16 | CCOC(=O)NN(C(=O)OCC)C(C(=O)C1=CCCCC1)N(NC(=O)OCC)C(=O)OCC | > 100 | > 100 | > 100 | > 100 | > 100 |  |  | 
17 | CCc1c2c(cc3c1CC1(C3)Cc3cc4c(c(C(=O)OC)c3C1)CCCC4)CCCC2 (stereo not given) | > 100 | > 100 | > 100 |  | > 100 | 35.1 |  | 
18 | CC12C3C4C1C1C2C3C41CO (stereo not given) | > 100 |  |  |  |  | > 100 |  | 
19 | COc1ccc(OC)c(NCC(=O)Nn2cnc3ccc(S(=O)(=O)Nc4cc(OC)ccc4OC)cc3c2=O)c1 | > 100 | > 100 | > 100 | > 100 |  | > 100 |  | 
20 | COc1ccccc1Cc1ccc(C2C=CC3(CC(=O)C=C3C)C(=O)C2)o1 (stereo not given) | 50.5 | 50.3 | 58.3 | 64.9 |  | 31.8 |  | 
21 | Cc1cc(S(=O)(=O)N2CCNNC2=O)c(S)cc1Cl | > 100 |  |  | > 100 |  | > 100 |  | 
22 | CC(=O)Nc1ccc2nc(-c3ccccn3)c(-c3ccccn3)nc2c1 | > 100 |  |  | > 100 |  | > 100 |  | 
23 | Clc1cc2nn(C3CCCCO3)nc2cc1Cl (stereo not given) | > 100 | > 100 | > 100 |  | > 100 | > 100 |  | 
24 | COC(=O)N1CC(=O)C(C(=O)NC23CC4CC(CC(C4)C2)C3)C1 (stereo not given) | > 100 |  | > 100 | > 100 | > 100 | > 100 |  | 
25 | CC1CN=C(NS(=O)(=O)c2cc(C(=O)Nc3ccc(Cl)cc3)c(Cl)cc2S)NN1 (stereo not given) | > 100 | > 100 | > 100 | 52.1 |  | 84.1 |  | 
26 | S=C(NCCc1ccccn1)N/N=C/c1ccccn1 | 0.452 | 0.0696 |  | > 100 | > 100 | 4.59 |  | 
27 | CCNC(=O)c1cc(Cl)ccc1NC(=O)C12CC3CC(CC(C3)C1)C2 | > 100 | > 100 | > 100 | > 100 | > 100 |  |  | 

Reference: PubChem BioAssay (NCI)
